In ChEMBL document CHEMBL3991601, “The target landscape of clinical kinase drugs” (Science, 2017):
Active and inactive are the calls of the source. Rule as the data show it, for most assays here: actives have a measured Kd and inactives only a lower limit.

What was measured:
[1] = biological target: T1, ATP-dependent RNA helicase DDX1 (Homo sapiens, UniProt Q92499)
T1 sequence (Q92499 whole entry): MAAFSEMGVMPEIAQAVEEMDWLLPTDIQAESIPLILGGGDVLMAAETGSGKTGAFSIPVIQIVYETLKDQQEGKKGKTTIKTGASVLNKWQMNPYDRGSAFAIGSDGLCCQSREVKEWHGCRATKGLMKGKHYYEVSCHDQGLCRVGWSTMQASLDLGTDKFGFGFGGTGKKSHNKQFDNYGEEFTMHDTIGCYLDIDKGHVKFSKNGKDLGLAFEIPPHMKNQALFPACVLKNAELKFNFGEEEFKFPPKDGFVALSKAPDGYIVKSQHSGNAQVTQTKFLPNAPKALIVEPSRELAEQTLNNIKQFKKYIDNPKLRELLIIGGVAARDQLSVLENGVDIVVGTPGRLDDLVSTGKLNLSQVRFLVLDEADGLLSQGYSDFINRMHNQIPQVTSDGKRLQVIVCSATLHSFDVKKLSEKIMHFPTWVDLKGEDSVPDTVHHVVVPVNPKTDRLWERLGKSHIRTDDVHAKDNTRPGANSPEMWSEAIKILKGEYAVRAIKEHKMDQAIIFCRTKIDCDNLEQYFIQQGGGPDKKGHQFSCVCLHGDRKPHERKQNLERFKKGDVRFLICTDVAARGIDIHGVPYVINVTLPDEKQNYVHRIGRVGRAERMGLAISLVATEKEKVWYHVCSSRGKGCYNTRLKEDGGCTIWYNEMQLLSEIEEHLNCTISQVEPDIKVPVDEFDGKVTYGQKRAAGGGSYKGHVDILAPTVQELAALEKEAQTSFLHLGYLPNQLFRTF

[2] = biological target: Epidermal growth factor receptor (Homo sapiens, UniProt P00533)
Sequence of Epidermal growth factor receptor (P00533 whole entry): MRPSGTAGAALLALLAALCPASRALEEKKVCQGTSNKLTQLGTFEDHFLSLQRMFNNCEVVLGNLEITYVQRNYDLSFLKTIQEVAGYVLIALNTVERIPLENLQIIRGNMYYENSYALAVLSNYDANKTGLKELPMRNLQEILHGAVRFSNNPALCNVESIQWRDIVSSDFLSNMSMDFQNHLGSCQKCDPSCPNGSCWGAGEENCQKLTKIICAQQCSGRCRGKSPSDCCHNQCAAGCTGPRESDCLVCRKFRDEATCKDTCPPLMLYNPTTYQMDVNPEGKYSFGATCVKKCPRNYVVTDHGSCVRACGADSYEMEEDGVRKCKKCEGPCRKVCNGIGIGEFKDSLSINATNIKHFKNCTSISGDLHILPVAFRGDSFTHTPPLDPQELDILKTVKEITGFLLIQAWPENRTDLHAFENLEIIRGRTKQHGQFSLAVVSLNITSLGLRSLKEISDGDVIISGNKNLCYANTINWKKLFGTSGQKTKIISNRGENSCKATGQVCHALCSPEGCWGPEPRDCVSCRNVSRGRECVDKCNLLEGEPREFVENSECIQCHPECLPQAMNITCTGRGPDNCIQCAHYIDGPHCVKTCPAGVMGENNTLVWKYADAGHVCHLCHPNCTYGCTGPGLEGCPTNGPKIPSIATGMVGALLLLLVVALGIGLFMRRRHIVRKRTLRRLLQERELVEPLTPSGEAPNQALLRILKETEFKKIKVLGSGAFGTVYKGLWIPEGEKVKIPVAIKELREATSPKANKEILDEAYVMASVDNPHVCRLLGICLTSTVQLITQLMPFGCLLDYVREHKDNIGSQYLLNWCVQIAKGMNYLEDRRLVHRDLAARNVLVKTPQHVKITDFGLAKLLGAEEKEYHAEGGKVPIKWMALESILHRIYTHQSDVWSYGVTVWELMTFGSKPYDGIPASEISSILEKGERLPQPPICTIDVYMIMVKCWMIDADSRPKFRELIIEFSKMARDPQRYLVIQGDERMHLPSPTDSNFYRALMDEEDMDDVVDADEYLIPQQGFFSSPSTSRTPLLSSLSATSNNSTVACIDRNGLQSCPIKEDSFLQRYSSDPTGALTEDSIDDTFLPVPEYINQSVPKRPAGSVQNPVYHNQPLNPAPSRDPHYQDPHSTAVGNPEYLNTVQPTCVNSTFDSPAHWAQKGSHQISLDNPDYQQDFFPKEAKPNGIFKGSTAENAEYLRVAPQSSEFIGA

[3] = biological target: Ephrin type-A receptor 5 (Homo sapiens, UniProt P54756)
Sequence of Ephrin type-A receptor 5 (P54756 whole entry): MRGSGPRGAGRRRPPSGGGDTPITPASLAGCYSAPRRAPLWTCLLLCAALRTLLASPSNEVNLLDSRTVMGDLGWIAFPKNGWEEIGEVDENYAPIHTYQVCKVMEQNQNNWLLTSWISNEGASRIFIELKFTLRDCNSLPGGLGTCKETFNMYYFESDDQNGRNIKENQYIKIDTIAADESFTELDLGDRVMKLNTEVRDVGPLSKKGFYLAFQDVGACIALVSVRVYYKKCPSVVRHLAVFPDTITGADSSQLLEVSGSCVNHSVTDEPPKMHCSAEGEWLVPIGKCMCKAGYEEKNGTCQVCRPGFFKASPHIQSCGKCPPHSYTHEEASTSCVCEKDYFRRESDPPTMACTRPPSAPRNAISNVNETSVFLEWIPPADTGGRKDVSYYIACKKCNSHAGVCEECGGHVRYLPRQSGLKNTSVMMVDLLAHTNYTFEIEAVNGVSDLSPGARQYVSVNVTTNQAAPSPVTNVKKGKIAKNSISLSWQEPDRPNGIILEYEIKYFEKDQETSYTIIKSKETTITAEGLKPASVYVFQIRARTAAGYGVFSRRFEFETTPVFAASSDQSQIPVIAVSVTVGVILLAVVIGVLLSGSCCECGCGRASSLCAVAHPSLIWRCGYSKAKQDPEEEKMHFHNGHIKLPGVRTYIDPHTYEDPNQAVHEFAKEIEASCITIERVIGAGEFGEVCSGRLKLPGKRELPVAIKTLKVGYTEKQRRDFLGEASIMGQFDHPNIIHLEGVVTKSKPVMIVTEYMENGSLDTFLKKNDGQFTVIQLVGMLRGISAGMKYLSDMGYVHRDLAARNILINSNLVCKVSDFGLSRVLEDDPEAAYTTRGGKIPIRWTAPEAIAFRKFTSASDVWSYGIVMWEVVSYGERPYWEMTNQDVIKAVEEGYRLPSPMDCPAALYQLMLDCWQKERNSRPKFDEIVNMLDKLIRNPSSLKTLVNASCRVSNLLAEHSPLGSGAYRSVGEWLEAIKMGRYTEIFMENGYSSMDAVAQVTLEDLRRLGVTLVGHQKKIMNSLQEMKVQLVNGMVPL

[4] = biological target: Serine/threonine-protein kinase PAK 2 (Homo sapiens, UniProt Q13177)
Sequence of Serine/threonine-protein kinase PAK 2 (Q13177 whole entry): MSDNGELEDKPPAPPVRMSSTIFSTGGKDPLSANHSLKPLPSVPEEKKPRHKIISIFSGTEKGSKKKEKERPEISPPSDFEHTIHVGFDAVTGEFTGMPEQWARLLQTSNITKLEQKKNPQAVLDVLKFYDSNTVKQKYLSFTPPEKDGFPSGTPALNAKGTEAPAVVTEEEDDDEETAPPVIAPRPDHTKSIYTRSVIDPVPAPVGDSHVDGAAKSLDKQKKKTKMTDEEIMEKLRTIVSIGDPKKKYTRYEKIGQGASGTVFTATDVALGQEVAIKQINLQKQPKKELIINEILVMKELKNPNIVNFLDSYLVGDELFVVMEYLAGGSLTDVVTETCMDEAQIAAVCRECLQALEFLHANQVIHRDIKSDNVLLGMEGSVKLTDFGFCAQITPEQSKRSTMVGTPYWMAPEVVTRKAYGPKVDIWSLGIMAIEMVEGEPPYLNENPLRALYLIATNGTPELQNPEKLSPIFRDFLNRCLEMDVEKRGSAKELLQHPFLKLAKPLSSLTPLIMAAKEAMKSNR

[5] = biological target: Tyrosine-protein kinase JAK1 (Homo sapiens, UniProt P23458)
[6] = biological target: T2, Receptor-type tyrosine-protein kinase FLT3 (Homo sapiens, UniProt P36888)
T2 sequence (P36888 whole entry): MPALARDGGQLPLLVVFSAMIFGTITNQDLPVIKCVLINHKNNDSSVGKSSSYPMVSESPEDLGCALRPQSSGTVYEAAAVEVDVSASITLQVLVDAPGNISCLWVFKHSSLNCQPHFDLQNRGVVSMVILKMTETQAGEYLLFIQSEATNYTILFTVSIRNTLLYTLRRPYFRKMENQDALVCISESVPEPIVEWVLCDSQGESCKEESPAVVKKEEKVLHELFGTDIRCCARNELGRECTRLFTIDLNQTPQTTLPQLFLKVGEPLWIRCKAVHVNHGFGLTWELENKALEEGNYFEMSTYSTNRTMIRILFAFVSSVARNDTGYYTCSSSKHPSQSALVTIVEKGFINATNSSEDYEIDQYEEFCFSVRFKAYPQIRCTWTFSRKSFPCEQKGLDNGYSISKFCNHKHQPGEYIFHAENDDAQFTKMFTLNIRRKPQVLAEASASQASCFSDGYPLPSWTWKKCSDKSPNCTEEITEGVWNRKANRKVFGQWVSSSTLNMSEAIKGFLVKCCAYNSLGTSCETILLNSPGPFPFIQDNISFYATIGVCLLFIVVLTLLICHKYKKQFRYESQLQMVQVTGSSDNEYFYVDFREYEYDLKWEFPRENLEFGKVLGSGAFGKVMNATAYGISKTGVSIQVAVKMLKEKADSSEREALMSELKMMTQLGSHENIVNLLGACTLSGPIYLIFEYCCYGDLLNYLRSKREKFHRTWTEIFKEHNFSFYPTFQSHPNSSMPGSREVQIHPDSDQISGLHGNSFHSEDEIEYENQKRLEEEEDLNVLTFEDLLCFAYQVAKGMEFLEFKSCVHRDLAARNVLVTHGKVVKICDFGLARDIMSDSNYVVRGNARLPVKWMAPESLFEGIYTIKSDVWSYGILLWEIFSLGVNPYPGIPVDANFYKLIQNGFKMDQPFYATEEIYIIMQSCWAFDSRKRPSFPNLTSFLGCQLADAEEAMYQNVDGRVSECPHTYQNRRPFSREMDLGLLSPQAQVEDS

[7] = biological target: Dual specificity mitogen-activated protein kinase kinase 2 (Homo sapiens, UniProt P36507)
Sequence of Dual specificity mitogen-activated protein kinase kinase 2 (P36507 whole entry): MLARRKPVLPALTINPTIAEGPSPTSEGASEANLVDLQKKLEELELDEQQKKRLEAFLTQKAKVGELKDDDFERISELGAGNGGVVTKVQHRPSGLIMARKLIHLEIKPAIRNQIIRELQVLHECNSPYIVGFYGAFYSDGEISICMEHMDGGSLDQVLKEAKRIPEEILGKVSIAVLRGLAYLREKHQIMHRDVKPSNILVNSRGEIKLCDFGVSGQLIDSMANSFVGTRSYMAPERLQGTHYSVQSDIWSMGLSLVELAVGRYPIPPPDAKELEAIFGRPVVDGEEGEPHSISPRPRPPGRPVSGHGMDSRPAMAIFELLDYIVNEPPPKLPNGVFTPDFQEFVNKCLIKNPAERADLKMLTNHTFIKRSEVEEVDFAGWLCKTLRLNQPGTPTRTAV

[8] = biological target: BMP-2-inducible protein kinase (Homo sapiens, UniProt Q9NSY1)
[9] = biological target: Dual specificity testis-specific protein kinase 1 (Homo sapiens, UniProt Q15569)
Sequence of Dual specificity testis-specific protein kinase 1 (Q15569 whole entry): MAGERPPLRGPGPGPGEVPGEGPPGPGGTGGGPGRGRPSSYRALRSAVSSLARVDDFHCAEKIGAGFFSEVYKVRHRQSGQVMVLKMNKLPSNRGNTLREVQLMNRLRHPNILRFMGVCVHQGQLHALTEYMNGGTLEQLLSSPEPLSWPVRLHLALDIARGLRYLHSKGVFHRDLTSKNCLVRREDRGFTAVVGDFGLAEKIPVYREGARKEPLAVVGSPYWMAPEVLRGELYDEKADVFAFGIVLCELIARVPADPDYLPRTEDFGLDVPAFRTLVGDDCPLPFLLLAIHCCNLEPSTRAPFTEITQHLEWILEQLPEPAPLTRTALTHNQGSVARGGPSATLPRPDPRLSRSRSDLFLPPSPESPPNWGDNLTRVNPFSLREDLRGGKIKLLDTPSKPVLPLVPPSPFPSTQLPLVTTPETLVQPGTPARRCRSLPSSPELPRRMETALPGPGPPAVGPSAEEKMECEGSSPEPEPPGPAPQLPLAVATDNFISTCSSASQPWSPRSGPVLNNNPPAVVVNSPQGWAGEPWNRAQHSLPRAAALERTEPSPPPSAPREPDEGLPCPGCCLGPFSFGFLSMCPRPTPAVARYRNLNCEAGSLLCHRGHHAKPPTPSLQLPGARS

[10] = biological target: T3, Mitogen-activated protein kinase kinase kinase 3 (Homo sapiens, UniProt Q99759)
T3 sequence (Q99759 whole entry): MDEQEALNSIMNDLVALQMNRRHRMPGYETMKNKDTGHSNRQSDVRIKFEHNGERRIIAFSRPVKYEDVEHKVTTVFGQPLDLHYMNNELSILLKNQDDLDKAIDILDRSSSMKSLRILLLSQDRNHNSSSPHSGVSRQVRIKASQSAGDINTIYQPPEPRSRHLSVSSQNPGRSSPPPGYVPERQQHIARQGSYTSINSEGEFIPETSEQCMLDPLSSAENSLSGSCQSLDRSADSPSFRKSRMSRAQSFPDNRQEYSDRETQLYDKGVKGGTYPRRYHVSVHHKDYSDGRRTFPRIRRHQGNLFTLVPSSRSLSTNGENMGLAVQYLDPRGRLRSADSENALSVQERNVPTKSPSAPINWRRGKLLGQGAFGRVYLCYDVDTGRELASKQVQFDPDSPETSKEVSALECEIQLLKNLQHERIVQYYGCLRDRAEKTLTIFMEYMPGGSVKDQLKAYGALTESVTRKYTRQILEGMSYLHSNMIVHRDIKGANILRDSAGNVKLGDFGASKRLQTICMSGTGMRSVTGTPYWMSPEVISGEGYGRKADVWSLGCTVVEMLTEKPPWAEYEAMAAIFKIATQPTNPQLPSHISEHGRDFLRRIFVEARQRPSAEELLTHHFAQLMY

[11] = biological target: Interleukin-1 receptor-associated kinase 1 (Homo sapiens, UniProt P51617)
Sequence of Interleukin-1 receptor-associated kinase 1 (P51617 whole entry): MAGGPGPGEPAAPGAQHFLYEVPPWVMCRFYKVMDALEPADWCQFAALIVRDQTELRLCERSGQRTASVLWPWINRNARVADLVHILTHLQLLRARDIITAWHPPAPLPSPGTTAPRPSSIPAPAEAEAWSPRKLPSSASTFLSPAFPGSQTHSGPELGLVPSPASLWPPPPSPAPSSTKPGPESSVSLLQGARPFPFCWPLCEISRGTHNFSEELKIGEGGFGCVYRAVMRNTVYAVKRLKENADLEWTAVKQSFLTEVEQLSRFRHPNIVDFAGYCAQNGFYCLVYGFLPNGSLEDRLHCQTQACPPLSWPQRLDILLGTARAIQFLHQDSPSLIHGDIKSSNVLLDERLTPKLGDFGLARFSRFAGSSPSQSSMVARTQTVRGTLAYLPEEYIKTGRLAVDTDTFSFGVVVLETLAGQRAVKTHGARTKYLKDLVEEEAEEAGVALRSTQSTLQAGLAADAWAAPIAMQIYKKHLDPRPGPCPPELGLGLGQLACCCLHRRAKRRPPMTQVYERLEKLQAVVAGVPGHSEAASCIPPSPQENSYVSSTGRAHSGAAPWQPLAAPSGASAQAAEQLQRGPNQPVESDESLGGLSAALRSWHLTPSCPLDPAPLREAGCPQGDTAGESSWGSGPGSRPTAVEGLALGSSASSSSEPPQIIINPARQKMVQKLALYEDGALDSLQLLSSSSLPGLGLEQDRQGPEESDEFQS
Also: in the data inactive means no Kd found up to 30 µM.

Row | SMILES | Kd [1] | Kd [2] | Kd [3] | Kd [4] | Kd [5] | Kd [6] | Kd [7] | Kd [8] | Kd [9] | Kd [10] | Kd [11]
1 | CC(=O)c1cnc2ccc(-c3cc(Cl)c(O)c(Cl)c3)nc2c1N[C@H]1CC[C@H](CN(C)C)CC1 | > 30 µM (inactive) | > 30 µM (inactive) | 0.075 µM (active) | > 30 µM (inactive) | > 30 µM (inactive) | > 30 µM (inactive) | > 30 µM (inactive) | 0.245 µM (active) |  |  | 
2 | Cc1cc(Nc2ncc(Cl)c(Nc3ccccc3S(=O)(=O)C(C)C)n2)c(OC(C)C)cc1C1CCNCC1 [CERITINIB] | > 30 µM (inactive) |  | > 30 µM (inactive) | > 30 µM (inactive) | > 30 µM (inactive) | 4.26 µM (active) | > 30 µM (inactive) | > 30 µM (inactive) | > 30 µM (inactive) | > 30 µM (inactive) | > 30 µM (inactive)
3 | CCNC(=O)C#Cc1ccc2c(c1)NC(=O)/C2=C(\Nc1ccc(CN(C)C)cc1)c1ccccc1 | > 30 µM (inactive) | > 30 µM (inactive) | > 30 µM (inactive) | > 30 µM (inactive) | > 30 µM (inactive) | 0.148 µM (active) |  | > 30 µM (inactive) | > 30 µM (inactive) | > 30 µM (inactive) | > 30 µM (inactive)
4 | O=C(Nc1cc(C(F)(F)F)cc(C(F)(F)F)c1)c1cc(Cl)ccc1O [IMD-0354] | > 30 µM (inactive) | > 30 µM (inactive) | > 30 µM (inactive) | > 30 µM (inactive) | > 30 µM (inactive) |  | > 30 µM (inactive) | > 30 µM (inactive) | > 30 µM (inactive) | > 30 µM (inactive) | > 30 µM (inactive)
5 | COc1cc2ncnc(Oc3cccc(NC(=O)Nc4cc(C(C)(C)C(F)(F)F)on4)c3)c2cc1OC [CEP-32496] | > 30 µM (inactive) |  | 0.401 µM | > 30 µM (inactive) | > 30 µM (inactive) | 0.55 µM (active) | > 30 µM (inactive) | > 30 µM (inactive) | > 30 µM (inactive) | > 30 µM (inactive) | > 30 µM (inactive)
6 | Cc1cc(C(=O)NOCCO)c(Nc2ccc(I)cc2F)n(C)c1=O [AZD-8330] | > 30 µM (inactive) | > 30 µM (inactive) | > 30 µM (inactive) | > 30 µM (inactive) | > 30 µM (inactive) | > 30 µM (inactive) |  | > 30 µM (inactive) |  | > 30 µM (inactive) | > 30 µM (inactive)
7 | C#Cc1cccc(Nc2ncnc3cc(OC)c(OCCCCCCC(=O)NO)cc23)c1 [CUDC-101] | > 30 µM (inactive) |  | > 30 µM (inactive) | > 30 µM (inactive) | > 30 µM (inactive) | > 30 µM (inactive) | > 30 µM (inactive) | > 30 µM (inactive) | > 30 µM (inactive) | > 30 µM (inactive) | > 30 µM (inactive)
8 | COCC(=O)NC/C=C/c1ccc2ncnc(Nc3ccc(Oc4ccc(C)nc4)c(C)c3)c2c1 [CP-724714] | > 30 µM (inactive) |  | > 30 µM (inactive) | > 30 µM (inactive) | > 30 µM (inactive) | > 30 µM (inactive) | > 30 µM (inactive) | > 30 µM (inactive) | > 30 µM (inactive) | > 30 µM (inactive) | > 30 µM (inactive)
9 | CNC(=O)c1nn(C)c2c1C(C)(C)Cc1cnc(Nc3ccc(N4CCN(C)CC4)cc3)nc1-2 [MILCICLIB] |  |  | 0.147 µM (active) | > 30 µM (inactive) | > 30 µM (inactive) | 0.054 µM (active) | > 30 µM (inactive) | > 30 µM (inactive) | > 30 µM (inactive) | > 30 µM (inactive) | 2.06 µM (active)
10 | C[C@H]1CNCCCN1S(=O)(=O)c1cccc2cncc(F)c12 | > 30 µM (inactive) | > 30 µM (inactive) | > 30 µM (inactive) |  | > 30 µM (inactive) | > 30 µM (inactive) | > 30 µM (inactive) | > 30 µM (inactive) | > 30 µM (inactive) | > 30 µM (inactive) | > 30 µM (inactive)
11 | C[C@@H](Oc1cc(C(=O)Nc2ccc(C(=O)N3CCN(C)CC3)cc2)nnc1N)c1c(Cl)ccc(F)c1Cl |  | > 30 µM (inactive) | > 30 µM (inactive) | > 30 µM (inactive) | > 30 µM (inactive) | > 30 µM (inactive) | > 30 µM (inactive) | > 30 µM (inactive) |  | > 30 µM (inactive) | > 30 µM (inactive)
12 | CN1CCN(CCOc2cc(OC3CCOCC3)c3c(Nc4c(Cl)ccc5c4OCO5)ncnc3c2)CC1 [SARACATINIB] | > 30 µM (inactive) |  | 2.38 µM (active) |  | > 30 µM (inactive) | 0.14 µM | > 30 µM (inactive) | > 30 µM (inactive) | > 30 µM (inactive) | > 30 µM (inactive) | > 30 µM (inactive)
13 | C=CC(=O)N1CCC[C@H](n2c(=O)n(-c3ccc(Oc4ccccc4)cc3)c3c(N)ncnc32)C1 | > 30 µM (inactive) | 0.019 µM (active) | > 30 µM (inactive) |  | > 30 µM (inactive) | > 30 µM (inactive) | > 30 µM (inactive) | > 30 µM (inactive) | > 30 µM (inactive) | > 30 µM (inactive) | > 30 µM (inactive)
14 | CCOc1cc2ncc(C#N)c(Nc3ccc(F)c(Cl)c3)c2cc1NC(=O)/C=C/CN(C)C [PELITINIB] | > 30 µM (inactive) |  | > 30 µM (inactive) | > 30 µM (inactive) | > 30 µM (inactive) | > 30 µM (inactive) |  |  | > 30 µM (inactive) | 2.09 µM (active) | > 30 µM (inactive)
15 | NC(=O)Nc1cc(-c2cccc(F)c2)sc1C(=O)N[C@H]1CCCNC1 [AZD-7762] | > 30 µM (inactive) |  | > 30 µM (inactive) |  | > 30 µM (inactive) | > 30 µM (inactive) | 1.22 µM (active) | 0.181 µM (active) | > 30 µM (inactive) | > 30 µM (inactive) | > 30 µM (inactive)
